From patent US7164023B2, “Benzoquinolizine-2-carboxylic acid arginine salt tetrahydrate” (priority 2003, dated 2007)
Where a name gives a salt, the structure may show the parent alone.

Tests used:
[1] = Temperature/relative humidity-related stability (validated HPLC assay, XRPD); format: physicochemical
Excerpt: 3 Sample batches of the compound were stored under the conditions of the study as stated in the table below. The assay was done by a validated HPLC method.

[2] = system: broad spectrum of microorganisms including antibiotic-resistant strains of Staphylococcus aureus, more particularly glycopeptide-resistant staphylococci; conditions: incl. antibiotic-resistant S. aureus; cited from earlier work
[3] = in vivo; cited from earlier work
[4] = Conversion of monohydrate to tetrahydrate under ambient conditions, by XRPD; format: physicochemical; conditions: ambient temperature (35° C.) and relative humidity (60%)
Method: X-ray diffraction analyses (40 kv x 40 mA Rigaku D/max 2200) were performed under the conditions listed below: • Scan speed 5°/min or 20°/min • Sampling time 7 min or 2 min • Scan mode: continuous • 2θ/θ reflection • Cu target (Ni filter)

C[C@H]1CCc2c(N3CCC(O)CC3)c(F)cc3c(=O)c(C(=O)O)cn1c23 [S-(−)-9-fluoro-6,7-dihydro-8-(4-hydroxypiperidin-1-yl)-5-methyl-1-oxo-1H,5H-benzo[i,j]quinolizine-2-carboxylic acid L-arginine salt tetrahydrate]
HPLC assay on storage ([1]; 25° C./60% relative humidity, 3 months): 99.22% | HPLC assay on storage ([1]; 25° C./60% relative humidity, Initial): 99.31% | HPLC assay on storage ([1]; 40° C./75% relative humidity, 1 month): 99.30% | HPLC assay on storage ([1]; 40° C./75% relative humidity, 2 months): 99.25% | HPLC assay on storage ([1]; 40° C./75% relative humidity, 3 months): 99.27% | HPLC assay on storage ([1]; 40° C./75% relative humidity, Initial): 99.31% | Crystallinity on storage as seen by XRPD spectra ([1]; storage conditions of the stability study): underwent no changes

C[C@H]1CCc2c(N3CCC(O)CC3)c(F)cc3c(=O)c(C(=O)O)cn1c23.N=C(N)NCCC[C@H](N)C(=O)O [S-(−)-9-fluoro-6,7-dihydro-8-(4-hydroxypiperidin-1-yl)-5-methyl-1-oxo-1H,5H-benzo[i,j]quinolizine-2-carboxylic acid L-arginine salt]
Efficacy against microorganisms in mammals [2]: effective against a broad spectrum of microorganisms | Overall tolerability [3]: excellent overall tolerability

C[C@H]1CCc2c(N3CCC(O)CC3)c(F)cc3c(=O)c(C(=O)O)cn1c23.N=C(N)NCCC[C@H](N)C(=O)O [monohydrate, S-(−)-9-fluoro-6,7-dihydro-8-(4-hydroxypiperidin-1-yl)-5-methyl-1-oxo-1H,5H-benzo[i,j]quinolizine-2-carboxylic acid L-arginine salt]
Physical stability / moisture absorption [4]: highly unstable and rapidly absorbs moisture | Time until XRPD spectra change towards tetrahydrate [4]: ≤ 20 min
